Source: patent US20210403465A1, “QUINAZOLINYL-INDAZOLE DERIVATIVES AND THEIR USE AS INHIBITORS OF HUMAN IMMUNODEFICIENCY VIRUS REPLICATION” (ViiV HEALTHCARE UK (NO.5) LIMITED, priority 2018, published 2021)

Legend:
[1] = system: recombinant NL4-3 virus (Renilla luciferase) in MT-2 cells; assay: HIV cell culture assay (antiviral activity, luciferase readout in MT-2 cells); type: cell-based; conditions: NL43
Method: HIV cell culture assay—MT-2 cells, 293T cells and the proviral DNA clone of NL4-3 virus were obtained from the NIH AIDS Research and Reference Reagent Program. MT-2 cells were propagated in RPMI 1640 media supplemented with 10% heat inactivated fetal bovine serum (FBS), […]. The 293T cells were propagated in DMEM media supplemented with 10% heat inactivated FBS, […]. A recombinant NL4-3 proviral clone, in which a section of the nef gene was replaced with the Renilla luciferase gene, was used to make the reference virus used in these studies. The recombinant virus was prepared through transfection of the recombinant NL4-3 proviral clone into 293T cells using Transit-293 Transfection Reagent from Mirus Bio LLC (Madison, Wis.). Supernatant was harvested after 2-3 days and the amount of virus present was titered in MT-2 cells using luciferase enzyme activity as a marker by measuring luciferase enzyme activity. Luciferase was quantitated using the EnduRen Live Cell Substrate from Promega (Madison, Wis.). Antiviral activities of compounds toward the recombinant virus were quantified by measuring luciferase activity in MT-2 cells infected for 4-5 days with the recombinant virus in the presence of serial dilutions of the compound.
The 50% effective concentration (EC50) was calculated by using the exponential form of the median effect equation where (Fa)=1/[1+(ED50/drug conc.)m] (Johnson V A, Byington R T. Infectivity Assay. In Techniques in HIV Research. ed. Aldovini A, Walker B D. 71-76. New York: Stockton Press. 1990). The 50% inhibitory concentration (EC50) was calculated by using the exponential form of the median effect equation where percent inhibition=1/[1+(EC50/drug concentration)m], where m is a parameter that reflects the slope of the concentration-response curve.

[2] = Compound cytotoxicity, XTT-based colorimetric assay; type: cell-based; conditions: human; uninfected MT2 cells, day 4, XTT
Method: Compound cytotoxicity and the corresponding CC50 values were determined using the same protocol as described in the antiviral assay except that uninfected cells were used. Cytotoxicity was assessed on day 4 in uninfected MT2 cells by using a XTT (2,3-bis[2-Methoxy-4-nitro-5-sulfophenyl]-2H-tetrazolium-5-carboxyanilide inner salt)-based colorimetric assay (Sigma-Aldrich, St Louis, Mo.).

| Compound | EC50 [1] [nM] | CC50 at 4 days [2] [nM] |
| --- | --- | --- |
| Cn1nc(NS(C)(=O)=O)c2c(Cl)ccc(-n3c([C@H](Cc4cc(F)cc(F)c4)NC(=O)Cn4nc(C(F)F)c5c4C(F)(F)[C@@H]4C[C@H]54)nc4cc(OCc5cncnc5)ccc4c3=O)c21 (atropisomer, axis not shown; (P)) [Example 11, N—((S)-1-((3P)-3-(4-chloro-1-methyl-3-(methylsulfonamido)-1H-indazol-7-yl)-4-oxo-7-(pyrimidin-5-ylmethoxy)-3,4-dihydroquinazolin-2-yl)-2-(3,5-difluorophenyl)ethyl)-2-((3bS,4aR)-3-(difluoromethyl)-5,5-difluoro-3b,4,4a,5-tetrahydro-1H-cyclopropa[3,4]cyclopenta[1,2-c]pyrazol-1-yl)acetamide] | 0.066 | > 1000 |
| Cn1nc(NS(C)(=O)=O)c2c(Cl)ccc(-n3c([C@H](Cc4cc(F)cc(F)c4)NC(=O)Cn4nc(C(F)F)c5c4C(F)(F)[C@@H]4C[C@H]54)nc4cc(OCCC(C)(C)C(F)(F)F)ccc4c3=O)c21 (atropisomer, axis not shown; (P)) [Example 14, N—((S)-1-((3P)-3-(4-chloro-1-methyl-3-(methylsulfonamido)-1H-indazol-7-yl)-4-oxo-7-(4,4,4-trifluoro-3,3-dimethylbutoxy)-3,4-dihydroquinazolin-2-yl)-2-(3,5-difluorophenyl)ethyl)-2-((3bS,4aR)-3-(difluoromethyl)-5,5-difluoro-3b,4,4a,5-tetrahydro-1H-cyclopropa[3,4]cyclopenta[1,2-c]pyrazol-1-yl)acetamide] | 0.23 | > 500 |
